Patent publication US20230287021A1, “COMPOUNDS, COMPOSITIONS AND METHODS FOR STABILIZING TRANSTHYRETIN AND INHIBITING TRANSTHYRETIN MISFOLDING” (Protego Biopharma, Inc., priority 2020, published 2023)

Legend:
[1] = tafamidis-treated FAP patients, cited from earlier work
[2] = In vivo rat PK: tafamidis in plasma, CSF and brain; design: species or system Male Sprague-Dawley (SD) rats
Source text: For a compound provided herein to be an effective TTR stabilizer drug to halt and/or prevent the ocular and cerebral TTR amyloid deposition TTR amyloidosis, it has to be able to penetrate into the brain and CSF (surrogate for eye penetration) and deliver a sufficient amount of TTR stabilizer to stop TTR dissociation. A pharmacokinetic study in rat was used to evaluate the compounds. Male Sprague-Dawley (SD) rats (200-220 g weight) were acclimated for at least 2 to 3 days before being placed on study. All animals had access to certified rodent diet and water at libitum. Appropriate amount of the test compound was accurately weighed and mixed with appropriate volume of vehicle (such as DMSO/sterile water for iv dosing or 0.5% methylcellulose homogenous suspension or solution for oral administration or as a solution in a mixture NMP/PEG400/solutol/water) to administer a dose of 2, 5 or 10 mg/kg. For IV dosing the test compound was administered via tail vein or indwelling cannula. For oral dosing, the test compound was administered by oral gavage. Blood and CSF samples were collected at selected timepoints. Blood collection was performed from saphenous vein or tail vein of each animal into polypropylene tubes at each timepoint. All blood samples were transferred into EDTA-K2 tubes and centrifuged for 15 minutes at 4° C. for plasma collection. Plasma samples were kept at -80° C. until LC/MSMS analysis. CSF was collected from cisterna magna at each timepoint and quick frozen over dry ice and kept at -80° C. until LC/MSMS analysis. Brains were harvested immediately after the terminal bleeding (~ 24 hrs post dosing). The blood of the brain was perfused with normal saline. The brain was quickly picked and placed into centrifuge tube. The weight of brain samples was recorded. 4-Fold homogenization solution (MeOH/15 mM PBS (1:2)) was added into the tube according to the weighed samples. The brain was homogenized using a Polytron (3 strokes or more until homogenous, each 30 seconds) on wet ice. The samples were quick frozen over dry ice and kept at -80° C. until LC/MSMS analysis. Using a LC-MSMS method for the quantitative determination of test compound in biological matrixes, amount of test compound and active agent were measured in plasma and CSF at selected timepoints post-dosing and in brain at 24 hrs post dosing. Plasma concentration versus time data was analyzed by non-compartmental approaches using the Phoenix WinNonlin 6.3 software program. As reference, an oral dose of 2 mg/kg of tafamidis gave a CSF to plasma ratio over 24 hrs around 0.01 and a brain to plasma ratio at 24 hrs around 0.02.

[3] = In vitro rat plasma stability assay, formation of tafamidis; format: in vitro ADME; conditions: 37° C., 2 µM test compound
Procedure, shortened: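 Compound at 2 µM incubated in rat plasma at 37 °C, sampled at 0, 10, 30, 60, 120 min or 0, 60, 120, 180, 240 min. Protein precipitated, supernatant analyzed by LC-MS/MS, and percentage formation of tafamidis calculated per time point.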

[4] = In vitro rat liver S9 stability assay, formation of tafamidis; format: in vitro ADME; conditions: rat liver S9, 37° C., 1 µM test compound
Method: The test compound was added to liver S9 and incubated at 37° C. in a water bath at a concentration of 1 µM. At each time point (0, 5, 10, 20, 30 and 60 min), stop solution (tolbutamide plus labetalol) was added to precipitate protein and mixed thoroughly. After centrifugation, an aliquot of supernatant was analyzed by LC-MS/MS. The percentage of formation of active agent was calculated at each time point.

Row | Compound | tafamidis level in CSF relative to that in plasma ([1]; CSF) [%] | tafamidis/TTR stoichiometric ratio in plasma ([1]; plasma) | tafamidis/TTR stoichiometric ratio in vitreous and CSF ([1]; vitreous and CSF) | tafamidis level in vitreous relative to that in plasma ([1]; vitreous) [%] | Kp ([2]; male, Sprague-Dawley, CSF and plasma, oral dose of 2 mg/kg of tafamidis, reference, read-out: CSF to plasma ratio over 24 hrs) | Kp at 24 h ([2]; male, Sprague-Dawley, brain and plasma, oral dose of 2 mg/kg of tafamidis, reference, read-out: brain to plasma ratio at 24 hrs) | Formation of tafamidis at 120 min [3] | Formation of tafamidis at 60 min [4] | Tafamidis CSF/Plasma Ratio over 24 hrs (po) ([2]; po administration of test compound, over 24 hrs)
1 | O=C(O)c1ccc2nc(-c3cc(Cl)cc(Cl)c3)oc2c1 [tafamidis] | 2 | 2.4 | ≤ 1 | 0.5 | ~0.01 | ~0.02 | – | – | –
2 | CC(OC(=O)c1ccc2nc(-c3cc(Cl)cc(Cl)c3)oc2c1)C1CCOC1 (stereo not drawn) [Compound 161] | – | – | – | – | – | – | B (B is ≥25 to <50%) | B (B is ≥25 to <50%) | A (A is < 0.015)
